This experiment deals with iCDH (isocitrate dehydrogenase). Particulars: EDTA concentration of 5 mM; 0.4 mM MgCl2, 1.6 mM isocitric acid, 1 mM NADP+, 0.1M triethanolamine hydrochloride pH 8.5, 25° C.; FIG. 1. As to the method:
A varied amount of EDTA was added to 3 ml of a 0.1M triethanolamine hydrochloride solution (pH 8.5) containing the above-listed ingredients to provide an EDTA concentration of 0 to 10 mM. Each of the resulting mixtures was kept at a temperature of 25° C., and admixed with 20 μl of iCDH of about 3 u/ml, followed by measurement of the iCDH activity based on an increase in absorption at 340 nm by spectrophotometry.

Molecules are shown by their SMILES.

As for `O=C(O)CN(CCN(CC(=O)O)CC(=O)O)CC(=O)O` [EDTA], the iCDH activity result is on record as “completely loses its activity”.

The values are drawn from patent publication US5258286A, “Method of terminating isocitrate dehydrogenase reaction” (Oriental Yeast Co., Ltd., priority 1985, dated 1993).
